We go through two compounds from US10801025B2, “MicroRNA therapy for pancreatic cancer” (Indiana University Research and Technology Corporation, priority 2016, dated 2020).

In assay [1] the test system is Panc-1 and MIA PaCa-2 cells. Put plainly: Cell viability, Cell Counting Kit-8 (CCK8). Format: cell-based, human. Conditions: 10 μM BafA1 in combination with 10 μM gemcitabine, 48 hours, compared to gemcitabine alone. The protocol: 5×10^3 pancreatic cancer cells per well (Panc-1, MIA PaCa-2, or COLO 357) were plated in 96-well plates and grown at 37° C. for 24 hours. Cells were then transfected with 20 nM mimic control or miR-29a mimic using DharmaFECT® 1 for 24 hours. Transfection media was then removed and replaced with complete media, and cells were allowed to recover for 24 hours and subsequently treated with varying concentrations of gemcitabine (0 μM, 0.1 μM, 1 μM, 10 μM, 100 μM). Cell viability was measured at 72 hours post-gemcitabine treatment by adding 10 μl Cell Counting Kit-8 (CCK8) reagent (Dojindo, CK04) and absorbance was measured at 450 nm. For cell viability with Chloroquine (CQ) and BafilomycinA1 (BafA1) treatment, cells were treated with 25 μM CQ (Sigma Aldrich, C6628) or 10 μM BafA1 (Sigma Aldrich, B1793) in combination with 10 μM gemcitabine for 48 hours, and viability was measured using CCK8 kit as described above.
In general terms: Tetrazolium assays rely on reduction of a dye to a coloured formazan, in cell work by metabolically active cells.

The subject of assay [2] is Panc-1 cells. Put plainly: Autophagy flux immunoblotting (LC3B, p62). Format: cell-based, human. The conditions noted are these: 25 μM CQ added to control mimic cells.
Method: Cells were then transfected with 10 nM control or miR-29a mimics using DharmaFECT®. 24 hours post-transfection, cells were treated with 25 μM CQ in complete media for 3-6 hours. Subsequently, total proteins were harvested and subjected to western blot analysis as described above.

Consider `CO/C1=C\C(C)=C\[C@@H](C)[C@@H](O)[C@@H](C)C/C(C)=C/C=C/[C@H](OC)[C@@H]([C@@H](C)[C@@H](O)[C@H](C)[C@@]2(O)C[C@@H](O)[C@H](C)[C@@H](C(C)C)O2)OC1=O` [BafA1, BafilomycinA1], for which the cancer cell viability entry in assay [1] is “decreased cancer cell viability”.

As for `CCN(CC)CCCC(C)Nc1ccnc2cc(Cl)ccc12` (centres unmarked) [CQ, Chloroquine], in assay [2], the “LC3BI and II and p62 accumulation” value is on record as “robust net increase”.
